Patent publication US20230167088A1, “1-PYRAZINYLPYRAZOLYL-3-OXYALKYL ACIDS AND THEIR DERIVATIVES, AND THEIR USE FOR CONTROL OF UNDESIRED PLANT GROWTH” (BAYER AKTIENGESELLSCHAFT, priority 2020, published 2023)

Experiments:
ALOMY [1] = experiment: Herbicidal post-emergence action 1a (greenhouse pots, visual rating); format: in vivo, Alopecurus myosuroides; conditions: rated visually about 3 weeks after treatment, 100% = plants have died, 0% = like control plants
Procedure, shortened: (§1)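 Visual scoring versus untreated plants (100% = plants dead, 0% = as control) followed roughly 3 weeks in the greenhouse after treatment. Plants grown in sandy loam pots had been sprayed on green parts at the one-leaf stage, 2–3 weeks post-sowing, with aqueous WP/EC preparations containing 0.5% additive, 600 l/ha, at 320 and/or 80 g/ha.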

AVEFA [2] = experiment: as above; format: in vivo, Avena fatua; conditions: rated visually about 3 weeks after treatment, 100% = plants have died, 0% = like control plants
Procedure, shortened: as §1

ECHCG [3] = experiment: as above; format: in vivo, Echinochloa crus-galli; conditions: rated visually about 3 weeks after treatment, 100% = plants have died, 0% = like control plants
Procedure, shortened: as §1

LOLRI [4] = experiment: as above; format: in vivo, Lolium rigidum; conditions: Dosage 320 g/ha; rated visually about 3 weeks after treatment; 100% = plants have died, 0% = like control plants
Procedure, shortened: as §1

POLCO [5] = experiment: as above; format: in vivo, Polygonum convolvulus; conditions: dosage 320 g/ha, visual rating about 3 weeks after treatment
Procedure, shortened: as §1

STEME [6] = experiment: as above; format: in vivo, Stellaria media; conditions: Dosage 320 g/ha; rated visually about 3 weeks after treatment; 100% = plants have died, 0% = like control plants
Description: (§2) [table] a) Seeds of monocotyledonous and dicotyledonous weeds and crop plants are placed in sandy loam in plastic or organic plant pots, covered with soil and cultivated in a greenhouse under controlled growth conditions. 2 to 3 weeks after sowing, the test plants are treated at the one-leaf stage. The compounds of the invention, formulated in the form of wettable powders (WP) or as emulsion concentrates (EC), are then sprayed onto the green parts of the plants as aqueous suspension or emulsion with addition of 0.5% additive at a water application rate of 600 1/ha (converted). After the test plants have been kept in the greenhouse under optimum growth conditions for about 3 weeks, the activity of the preparations is rated visually in comparison to untreated controls. For example, 100% activity=the plants have died, 0% activity=like control plants. Tables A1 to A15 below show the effects of selected compounds of the general formula (I) according to Tables 1 and 2 on various harmful plants and an application rate corresponding to 320 g/ha and/or 80 g/ha, which were obtained by the experimental procedure mentioned above.

VIOTR [7] = experiment: as above; format: in vivo, Viola tricolor; conditions: visual rating about 3 weeks after treatment
Procedure, shortened: as §1

VERPE = experiment: as above; format: in vivo, Veronica persica; conditions: dosage 80 g/ha, visual rating about 3 weeks after treatment
Procedure, shortened: as §1

HORMU = experiment: as above; format: in vivo, Hordeum murinum; conditions: rated visually about 3 weeks after treatment, 100% = plants have died, 0% = like control plants
Description: as §2

ALOMY [8] = experiment: Herbicidal pre-emergence action 2a (greenhouse pots, visual scoring); format: in vivo, Alopecurus myosuroides; conditions: dosage 320 g/ha, visual scoring after about 3 weeks
Procedure, shortened: (§3)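 Pots of covered seed were sprayed pre-emergence at 320 and/or 80 g/ha. Roughly three weeks of greenhouse growth preceded visual scoring in percent versus untreated controls.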

AVEFA [9] = experiment: as above; format: in vivo, Avena fatua; conditions: dosage 320 g/ha, visual scoring after about 3 weeks
Procedure, shortened: as §3

DIGSA = experiment: as above; format: in vivo, Digitaria sanguinalis; conditions: dosage 320 g/ha, visual scoring after about 3 weeks
Procedure, shortened: as §3

ECHCG [10] = experiment: as above; format: in vivo, Echinochloa crus-galli; conditions: dosage 320 g/ha, visual scoring after about 3 weeks
Procedure, shortened: as §3

LOLRI [11] = experiment: as above; format: in vivo, Lolium rigidum; conditions: dosage 320 g/ha, visual scoring after about 3 weeks vs untreated controls
Procedure, shortened: as §3

SETVI = experiment: as above; format: in vivo, Setaria viridis; conditions: dosage 320 g/ha, visual scoring after about 3 weeks vs untreated controls
Procedure, shortened: as §3

AMARE [12] = experiment: as above; format: in vivo, Amaranthus retroflexus; conditions: dosage 320 g/ha, visual scoring after about 3 weeks vs untreated controls
Procedure, shortened: as §3

POLCO [13] = experiment: as above; format: in vivo, Polygonum convolvulus; conditions: dosage 320 g/ha, visual scoring after about 3 weeks vs untreated controls
Procedure, shortened: as §3

VIOTR [14] = experiment: as above; format: in vivo, Viola tricolor; conditions: dosage 320 g/ha, visual scoring after about 3 weeks vs untreated controls
Procedure, shortened: as §3

POAAN = experiment: Herbicidal pre-emergence action 2b (doubly sown, 1280 g/ha); format: in vivo, Poa annua; conditions: doubly sown pots, dosage 1280 g/ha, visual scoring after about 3 weeks
Procedure, shortened: (§4)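 Compounds were sprayed pre-emergence as wettable powders or emulsion concentrates onto soil covering freshly sown weed seeds, two species per pot. Percent activity was judged by eye roughly 3 weeks later versus untreated plants.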

ECHCG [15] = experiment: as above; format: in vivo, Echinochloa crus-galli; conditions: doubly sown pots, dosage 1280 g/ha, visual scoring after about 3 weeks
Procedure, shortened: as §4

AMARE [16] = experiment: as above; format: in vivo, Amaranthus retroflexus; conditions: doubly sown pots, dosage 1280 g/ha, visual scoring after about 3 weeks
Procedure, shortened: as §4

MATIN = experiment: as above; format: in vivo, Matricaria inodora; conditions: doubly sown pots, dosage 1280 g/ha, visual scoring after about 3 weeks
Procedure, shortened: as §4

STEME [17] = experiment: as above; format: in vivo, Stellaria media; conditions: doubly sown pots, dosage 1280 g/ha, visual scoring after about 3 weeks
Procedure, shortened: as §4

In the case of `COC(=O)COc1nn(-c2cnccn2)c(-c2ccnc(F)c2)c1Br` [Example I-09], the “Post-emergence action against ALOMY in %” value (ALOMY [1]; Dosage 80 g/ha) was 80%, the “Post-emergence action against ALOMY in %” value (ALOMY [1]; Dosage 320 g/ha) was 90% and the “Post-emergence action against AVEFA in %” value (AVEFA [2]; Dosage 80 g/ha) was 90%. The “Post-emergence action against AVEFA in %” value (AVEFA [2]; Dosage 320 g/ha) was 90%, the “Post-emergence action against ECHCG in %” value (ECHCG [3]; Dosage 80 g/ha) was 80% and the “Post-emergence action against ECHCG in %” value (ECHCG [3]; Dosage 320 g/ha) was 80%. For the same molecule, the “Post-emergence action against LOLRI in %” value (LOLRI [4]) was 90%, the “Post-emergence action against POLCO in %” value (POLCO [5]) was 100% and the “Post-emergence action against STEME in %” value (STEME [6]) was 80%. The “Post-emergence action against VIOTR in %” value (VIOTR [7]; dosage 80 g/ha) was 90%, the “Post-emergence action against VIOTR in %” value (VIOTR [7]; dosage 320 g/ha) was 90% and the “Post-emergence action against VERPE in %” value (VERPE) was 90%. For the same molecule, the “Post-emergence action against HORMU in %” value (HORMU; Dosage 80 g/ha) was 80%, the “Post-emergence action against HORMU in %” value (HORMU; Dosage 320 g/ha) was 90% and the “Pre-emergence action against ALOMY in %” value (ALOMY [8]) was 90%. The “Pre-emergence action against AVEFA in %” value (AVEFA [9]) was 90%, the “Pre-emergence action against DIGSA in %” value (DIGSA) was 100% and the “Pre-emergence action against ECHCG in %” value (ECHCG [10]) was 100%. The “Pre-emergence action against LOLRI in %” value (LOLRI [11]) was 90%, the “Pre-emergence action against SETVI in %” value (SETVI) was 90% and the “Pre-emergence action against AMARE in %” value (AMARE [12]) was 100%. The “Pre-emergence action against POLCO in %” value (POLCO [13]) was 100%, the “Pre-emergence action against VIOTR in %” value (VIOTR [14]) was 90% and the “Pre-emergence action at 1280 g/ha against POAAN in %” value (POAAN) was 100%. The “Pre-emergence action at 1280 g/ha against ECHCG in %” value (ECHCG [15]) was 100%, the “Pre-emergence action at 1280 g/ha against AMARE in %” value (AMARE [16]) was 90% and the “Pre-emergence action at 1280 g/ha against MATIN in %” value (MATIN) was 100%. The “Pre-emergence action at 1280 g/ha against STEME in %” value (STEME [17]) was 100%.
